Data reported in ChEMBL document CHEMBL1201862, “PubChem BioAssay data set” (2004).
Calls of active or inactive are those of the source.

Tests used:
[1] = target: Cyclin-dependent kinase 5/CDK5 activator 1 (Homo sapiens, UniProt Q00535); experiment: CDK5/p35 kinase inhibitors, dose response, biochemical, cherry-picked samples, set 2 (AID 504545)
[2] = HepG2 cell cytotoxicity, dose response, cytotoxicity control, ATP luminescence, cherry-pick, activator set 2 (AID 1053143); assay type: functional, cell-based
[3] = target: T1, Oxysterols receptor LXR-beta (Homo sapiens, UniProt P55055); assay type: functional, cell-based;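 also: agonist activity at LXR measured by a cell-based luminescence readout across a dose range, run as a counterscreen for daf-12 agonists; HEK293 cells with Gal4-LXR fusion and GAL4-driven luciferase reporter; potency for activation of Gal4-LXR reporter so compounds are agonists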
T1 sequence (P55055 whole entry): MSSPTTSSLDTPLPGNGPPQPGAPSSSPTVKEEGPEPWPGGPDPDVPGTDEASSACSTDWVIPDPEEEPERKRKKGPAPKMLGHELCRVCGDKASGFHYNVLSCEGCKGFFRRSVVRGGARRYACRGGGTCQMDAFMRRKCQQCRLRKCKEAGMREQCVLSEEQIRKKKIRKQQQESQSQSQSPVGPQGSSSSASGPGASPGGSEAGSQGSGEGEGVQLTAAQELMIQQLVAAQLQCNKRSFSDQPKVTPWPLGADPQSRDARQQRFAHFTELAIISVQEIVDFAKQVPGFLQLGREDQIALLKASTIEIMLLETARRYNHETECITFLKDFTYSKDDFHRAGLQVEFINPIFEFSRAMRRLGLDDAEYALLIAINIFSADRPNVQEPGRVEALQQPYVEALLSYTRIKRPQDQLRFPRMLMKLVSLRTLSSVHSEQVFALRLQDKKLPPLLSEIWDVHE

[4] = target: Voltage-dependent T-type calcium channel subunit alpha-1H (Homo sapiens, UniProt O95180); assay type: functional;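 also: channel activity triggered by adding a high calcium stimulation buffer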
Chain of Voltage-dependent T-type calcium channel subunit alpha-1H (O95180 whole entry): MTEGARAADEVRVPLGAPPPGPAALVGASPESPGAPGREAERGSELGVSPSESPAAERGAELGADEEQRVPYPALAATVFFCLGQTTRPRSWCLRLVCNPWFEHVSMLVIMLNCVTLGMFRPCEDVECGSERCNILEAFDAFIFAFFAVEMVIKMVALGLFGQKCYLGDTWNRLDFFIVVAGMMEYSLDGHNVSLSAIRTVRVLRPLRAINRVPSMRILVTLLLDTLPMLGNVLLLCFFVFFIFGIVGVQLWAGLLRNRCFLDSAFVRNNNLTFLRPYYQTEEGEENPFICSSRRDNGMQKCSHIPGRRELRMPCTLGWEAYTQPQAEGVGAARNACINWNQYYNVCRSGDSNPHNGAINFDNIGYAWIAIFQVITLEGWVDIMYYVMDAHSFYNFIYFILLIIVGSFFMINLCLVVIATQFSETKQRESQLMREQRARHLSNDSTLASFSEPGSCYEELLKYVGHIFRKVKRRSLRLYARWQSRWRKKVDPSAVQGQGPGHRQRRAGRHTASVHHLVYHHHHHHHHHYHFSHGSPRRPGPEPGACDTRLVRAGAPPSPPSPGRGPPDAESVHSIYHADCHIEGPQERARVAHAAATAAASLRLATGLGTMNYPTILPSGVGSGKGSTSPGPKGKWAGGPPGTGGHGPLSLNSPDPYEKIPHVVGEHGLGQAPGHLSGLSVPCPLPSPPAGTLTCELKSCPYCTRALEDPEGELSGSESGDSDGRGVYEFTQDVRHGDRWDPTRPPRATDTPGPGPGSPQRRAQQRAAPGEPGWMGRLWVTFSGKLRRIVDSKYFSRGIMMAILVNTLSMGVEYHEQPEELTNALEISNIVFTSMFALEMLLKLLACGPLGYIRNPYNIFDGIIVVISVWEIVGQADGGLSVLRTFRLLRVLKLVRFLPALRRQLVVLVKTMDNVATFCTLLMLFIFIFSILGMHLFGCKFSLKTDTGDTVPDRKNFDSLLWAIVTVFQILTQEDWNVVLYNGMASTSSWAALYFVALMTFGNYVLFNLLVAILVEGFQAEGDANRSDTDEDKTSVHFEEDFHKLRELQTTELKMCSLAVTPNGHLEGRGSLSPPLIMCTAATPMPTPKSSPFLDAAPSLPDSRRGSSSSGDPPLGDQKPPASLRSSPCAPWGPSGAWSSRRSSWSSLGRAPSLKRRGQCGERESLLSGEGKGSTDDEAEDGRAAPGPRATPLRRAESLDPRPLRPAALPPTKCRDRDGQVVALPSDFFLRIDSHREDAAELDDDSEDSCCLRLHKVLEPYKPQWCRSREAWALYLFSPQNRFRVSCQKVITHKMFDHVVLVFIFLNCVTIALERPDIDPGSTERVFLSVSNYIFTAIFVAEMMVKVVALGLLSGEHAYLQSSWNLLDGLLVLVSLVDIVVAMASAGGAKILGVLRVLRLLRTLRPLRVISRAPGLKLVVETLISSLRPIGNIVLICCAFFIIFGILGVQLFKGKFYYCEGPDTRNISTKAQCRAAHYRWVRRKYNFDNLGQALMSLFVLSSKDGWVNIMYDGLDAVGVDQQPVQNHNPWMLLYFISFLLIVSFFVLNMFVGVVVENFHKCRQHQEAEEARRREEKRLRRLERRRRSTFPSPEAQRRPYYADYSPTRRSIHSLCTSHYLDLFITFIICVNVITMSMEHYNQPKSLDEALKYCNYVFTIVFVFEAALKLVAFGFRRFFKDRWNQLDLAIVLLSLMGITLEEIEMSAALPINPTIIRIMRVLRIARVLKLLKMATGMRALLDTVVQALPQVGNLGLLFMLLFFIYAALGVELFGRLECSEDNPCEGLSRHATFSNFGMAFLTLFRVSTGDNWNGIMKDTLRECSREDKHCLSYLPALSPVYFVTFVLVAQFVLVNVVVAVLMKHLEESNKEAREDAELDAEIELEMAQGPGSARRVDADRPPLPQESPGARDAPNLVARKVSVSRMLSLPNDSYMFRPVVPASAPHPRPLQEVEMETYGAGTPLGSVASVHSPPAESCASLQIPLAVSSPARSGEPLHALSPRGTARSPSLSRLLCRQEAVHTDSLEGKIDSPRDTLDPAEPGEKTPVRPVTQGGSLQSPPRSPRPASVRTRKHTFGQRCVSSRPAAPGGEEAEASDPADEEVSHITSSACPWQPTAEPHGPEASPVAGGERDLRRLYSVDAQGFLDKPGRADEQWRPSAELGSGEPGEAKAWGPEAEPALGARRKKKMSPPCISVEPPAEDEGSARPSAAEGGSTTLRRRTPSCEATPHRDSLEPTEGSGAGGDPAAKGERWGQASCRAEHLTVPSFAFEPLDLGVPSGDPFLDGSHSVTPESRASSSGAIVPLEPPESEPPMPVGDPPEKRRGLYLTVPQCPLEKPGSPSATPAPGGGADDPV

[5] = target: Glyceraldehyde-3-phosphate dehydrogenase (Homo sapiens, UniProt P04406)
Chain of Glyceraldehyde-3-phosphate dehydrogenase (P04406 whole entry): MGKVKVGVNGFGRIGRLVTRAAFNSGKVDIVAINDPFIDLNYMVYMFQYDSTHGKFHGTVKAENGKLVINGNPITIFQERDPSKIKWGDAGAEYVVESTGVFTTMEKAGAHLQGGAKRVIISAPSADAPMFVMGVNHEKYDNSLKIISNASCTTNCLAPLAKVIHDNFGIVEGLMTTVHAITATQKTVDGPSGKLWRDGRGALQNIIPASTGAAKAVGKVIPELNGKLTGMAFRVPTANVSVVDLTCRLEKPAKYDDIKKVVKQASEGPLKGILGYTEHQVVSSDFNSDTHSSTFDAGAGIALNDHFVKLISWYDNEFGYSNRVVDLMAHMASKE

[6] = target: Alkaline phosphatase, placental type (Homo sapiens, UniProt P05187); experiment: PLAP enzyme inhibitors, confirmation, biochemical, luminescence (AID 1512); assay type: functional
Coagulation factor XII = target: T2, Coagulation factor XII (Homo sapiens, UniProt P00748); experiment: Factor XIIa Dose Response Confirmation from Single Well HTS. [Related pubchem assays (depositor defined):AID701]; assay type: functional
T2 sequence (P00748 whole entry): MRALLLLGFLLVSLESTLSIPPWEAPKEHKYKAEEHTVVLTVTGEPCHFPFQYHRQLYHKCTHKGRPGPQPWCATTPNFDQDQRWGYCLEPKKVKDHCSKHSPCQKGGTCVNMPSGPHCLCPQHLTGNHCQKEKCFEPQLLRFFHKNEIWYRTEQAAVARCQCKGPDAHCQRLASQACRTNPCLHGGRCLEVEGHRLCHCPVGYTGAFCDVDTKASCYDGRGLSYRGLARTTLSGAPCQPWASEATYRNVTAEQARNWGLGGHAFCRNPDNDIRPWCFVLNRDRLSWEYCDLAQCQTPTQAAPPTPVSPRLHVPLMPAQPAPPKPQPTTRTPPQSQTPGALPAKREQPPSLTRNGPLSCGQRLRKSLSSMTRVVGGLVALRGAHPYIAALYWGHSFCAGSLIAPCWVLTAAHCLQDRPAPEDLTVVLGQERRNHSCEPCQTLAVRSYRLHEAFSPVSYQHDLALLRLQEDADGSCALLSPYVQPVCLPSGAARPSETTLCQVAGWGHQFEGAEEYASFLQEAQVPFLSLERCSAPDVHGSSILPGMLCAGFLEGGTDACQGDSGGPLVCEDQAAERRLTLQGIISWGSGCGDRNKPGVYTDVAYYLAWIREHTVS

BJ [7] = experiment: cytotoxicity toward BJ-TERT fibroblasts, dose response, cell-based, RAS-independent, luminescence (AID 1933); assay type: functional; settings: Homo sapiens
BJ [8] = experiment: cells; assay type: functional, cell-based; settings: Homo sapiens
[9] = microbe, parasite or virus in culture; assay type: functional; settings: Mycobacterium tuberculosis
BJ [10] = experiment: cytotoxicity toward BJ-TERT-LT-ST fibroblasts, dose response, cell-based, RAS-independent, luminescence (AID 1935); assay type: functional; settings: Homo sapiens;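 also: BJ fibroblasts immortalized with TERT plus LT and ST oncogenes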
[11] = cytotoxicity toward DRD oncogenic fibroblasts, dose response, cell-based, non-viral oncogenic, luminescence (AID 1934); assay type: functional; settings: Homo sapiens
[12] = target: Neurotensin receptor type 1 (Homo sapiens, UniProt P30989); assay type: functional;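 also: Image-based confirmatory dose-response assay measuring agonist activity at NTR1; NTR1-expressing U2OS osteosarcoma cells imaged for beta-arrestin GFP spot formation; agonist potency where compounds increase beta-arrestin recruitment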
Chain of Neurotensin receptor type 1 (P30989 whole entry): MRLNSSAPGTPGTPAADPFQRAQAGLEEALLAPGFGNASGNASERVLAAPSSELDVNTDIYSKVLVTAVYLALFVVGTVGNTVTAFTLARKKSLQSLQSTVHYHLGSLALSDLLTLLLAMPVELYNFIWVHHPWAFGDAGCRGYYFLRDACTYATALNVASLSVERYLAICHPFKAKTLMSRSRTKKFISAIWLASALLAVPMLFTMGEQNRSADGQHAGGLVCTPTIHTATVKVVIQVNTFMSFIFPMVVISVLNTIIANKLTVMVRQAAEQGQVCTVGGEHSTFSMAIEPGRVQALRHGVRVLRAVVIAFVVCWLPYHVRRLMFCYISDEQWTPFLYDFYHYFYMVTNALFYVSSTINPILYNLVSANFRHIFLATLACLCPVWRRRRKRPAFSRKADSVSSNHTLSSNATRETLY

[13] = target: Luciferin 4-monooxygenase (Photinus pyralis, UniProt P08659); experiment: Counter Screen for Luciferase-based Assay Positives. [Related pubchem assays: 620, 618, 411 ]
cells [14] = assay type: functional, cell-based
cells [15] = assay type: functional, cell-based; remark: listed apart in the source
HT-1080 = experiment: cytotoxicity in HT1080 fibrosarcoma cells, cell-based, fluorescence readout (AID 620); assay type: functional; settings: Homo sapiens
[16] = THP-1 cell cytotoxicity, dose response, cytotoxicity control for non-replicating M. tuberculosis project (AID 489025); assay type: functional
[17] = HepG2 cell cytotoxicity, dose response, cytotoxicity control for non-replicating M. tuberculosis project (AID 489018); assay type: functional; settings: Mycobacterium tuberculosis
[18] = Vero E6 cell cytotoxicity, dose response, cytotoxicity control for non-replicating M. tuberculosis project, secondary assay (AID 492998); assay type: functional, VeroE6; settings: Vero C1008
Nonstructural protein 1 = Nonstructural protein 1 (Influenza A virus, UniProt Q194T2); assay type: functional, Influenza A virus (A/California/07/2009(H1N1))
[19] = target: T3, Microphthalmia-associated transcription factor (Homo sapiens, UniProt O75030); experiment: TRPM1 promoter luciferase signal decrease, dose response, MITF inhibitor project, cell-based, SK-MEL-5, cherry-picked, set 3 (AID 493073); assay type: functional
T3 sequence (O75030 whole entry): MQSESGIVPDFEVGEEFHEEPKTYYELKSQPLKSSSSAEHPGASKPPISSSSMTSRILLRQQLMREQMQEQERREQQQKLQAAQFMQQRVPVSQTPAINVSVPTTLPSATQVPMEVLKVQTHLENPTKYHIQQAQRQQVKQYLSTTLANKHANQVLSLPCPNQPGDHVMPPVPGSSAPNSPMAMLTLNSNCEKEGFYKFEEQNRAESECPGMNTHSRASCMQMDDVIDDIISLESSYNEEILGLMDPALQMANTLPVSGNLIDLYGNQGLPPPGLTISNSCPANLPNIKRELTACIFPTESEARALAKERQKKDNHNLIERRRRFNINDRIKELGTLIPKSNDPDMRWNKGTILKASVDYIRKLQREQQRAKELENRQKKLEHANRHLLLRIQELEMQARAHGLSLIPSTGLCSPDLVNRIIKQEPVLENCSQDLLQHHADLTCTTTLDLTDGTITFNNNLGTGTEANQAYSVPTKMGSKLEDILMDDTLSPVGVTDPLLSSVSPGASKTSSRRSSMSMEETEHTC

cells [20] = assay type: functional
BJ [21] = experiment: cytotoxicity toward Ras-transformed BJeLR fibroblasts, dose response, cell-based, alamar blue fluorescence, cherrypicked samples (AID 2631); assay type: functional; settings: Homo sapiens;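 also: confirmatory dose-response assay in RAS-dependent BJ fibroblasts engineered with TERT, LT and ST, with cytotoxicity read by fluorescence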
A-375 = experiment: A375 melanoma cell viability reduction, dose response, counter-screen for MITF modulator project, cherry-pick samples, set 2 (AID 540335); assay type: functional, cell-based; settings: Homo sapiens
[22] = Shn3 3'UTR reporter inhibitors, dose response, cell-based, Clone20 osteoblasts, firefly luciferase, cherry-picked (AID 624132); assay type: functional;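 also: firefly luciferase luminescence from reporter carrying the Shn3 3'UTR in osteoblasts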
[23] = HepG2 cell cytotoxicity, dose response, cytotoxicity control for Shn3 inhibitor project, CellTiter-Glo, cherry-picked (AID 624134); assay type: functional, cell-based
[24] = control 3'UTR Renilla luciferase suppression, dose response, counter-screen for Shn3 inhibitor project, cell-based, Clone20-Shn3RL, cherry-picked (AID 624133); assay type: functional
[25] = target: G-protein coupled receptor 55 (Homo sapiens, UniProt Q9Y2T6); experiment: GPR55 antagonists blocking LPI-driven arrestin recruitment, primary screen, imaging, U2OS, beta-arrestin-GFP, LPI agonist (AID 2013); assay type: functional;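 also: antagonist potency measured as reduced agonist-driven arrestin aggregation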
Chain of G-protein coupled receptor 55 (Q9Y2T6 whole entry): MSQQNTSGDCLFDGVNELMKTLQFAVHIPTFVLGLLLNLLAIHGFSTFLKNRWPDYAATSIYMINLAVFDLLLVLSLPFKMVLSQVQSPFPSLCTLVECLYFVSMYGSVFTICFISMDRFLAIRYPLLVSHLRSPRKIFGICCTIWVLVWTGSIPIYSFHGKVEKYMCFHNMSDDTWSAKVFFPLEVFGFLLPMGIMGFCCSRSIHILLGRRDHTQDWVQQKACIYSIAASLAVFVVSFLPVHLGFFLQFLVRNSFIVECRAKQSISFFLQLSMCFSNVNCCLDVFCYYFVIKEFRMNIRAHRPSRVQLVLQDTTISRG

Trypanosoma cruzi = experiment: growth inhibition of intracellular Trypanosoma cruzi, dose response, cell-based, plate reader, dry powder, set 3 (AID 493197); assay type: functional
[26] = Cytotoxicity screening for potential Inhibitors of Bacterial Capsule Biogenesis. [Related pubchem assays (depositor defined):AID488970]; assay type: functional
[27] = target: NACHT, LRR and PYD domains-containing protein 3 (Homo sapiens, UniProt Q96P20); experiment: NALP3 inhibitors in yeast, dose response, luminescent (AID 488799); assay type: functional
Chain of NACHT, LRR and PYD domains-containing protein 3 (Q96P20 whole entry, the tested form may be a part): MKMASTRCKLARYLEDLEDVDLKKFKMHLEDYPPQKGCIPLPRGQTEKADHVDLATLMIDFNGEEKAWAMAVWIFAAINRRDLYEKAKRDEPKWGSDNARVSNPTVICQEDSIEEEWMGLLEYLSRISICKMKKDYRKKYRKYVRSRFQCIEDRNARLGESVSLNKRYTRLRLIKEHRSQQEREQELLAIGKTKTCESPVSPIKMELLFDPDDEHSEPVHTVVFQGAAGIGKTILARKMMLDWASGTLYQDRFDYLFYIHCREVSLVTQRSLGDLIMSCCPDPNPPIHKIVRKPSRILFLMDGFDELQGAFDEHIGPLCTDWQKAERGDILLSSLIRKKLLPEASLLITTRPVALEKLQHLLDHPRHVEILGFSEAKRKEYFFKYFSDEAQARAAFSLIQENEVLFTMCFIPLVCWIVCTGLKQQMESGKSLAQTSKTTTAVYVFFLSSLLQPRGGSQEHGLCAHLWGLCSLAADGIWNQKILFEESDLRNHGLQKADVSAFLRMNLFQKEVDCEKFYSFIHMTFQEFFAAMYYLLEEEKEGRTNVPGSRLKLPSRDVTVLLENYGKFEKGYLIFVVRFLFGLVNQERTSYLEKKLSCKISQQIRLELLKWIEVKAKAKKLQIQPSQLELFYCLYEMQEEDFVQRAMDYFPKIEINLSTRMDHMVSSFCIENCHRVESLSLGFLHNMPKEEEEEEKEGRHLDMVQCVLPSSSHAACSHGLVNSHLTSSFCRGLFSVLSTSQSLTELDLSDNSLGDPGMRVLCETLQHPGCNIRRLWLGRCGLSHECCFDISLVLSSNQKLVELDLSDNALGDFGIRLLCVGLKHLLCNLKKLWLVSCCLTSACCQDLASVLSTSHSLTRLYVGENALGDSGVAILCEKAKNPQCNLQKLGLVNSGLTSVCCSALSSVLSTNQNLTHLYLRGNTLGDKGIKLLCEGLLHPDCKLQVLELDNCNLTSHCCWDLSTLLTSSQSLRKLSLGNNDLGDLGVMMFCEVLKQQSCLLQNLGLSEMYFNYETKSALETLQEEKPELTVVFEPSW

Chain of Cyclin-dependent kinase 5/CDK5 activator 1 (Q00535 whole entry): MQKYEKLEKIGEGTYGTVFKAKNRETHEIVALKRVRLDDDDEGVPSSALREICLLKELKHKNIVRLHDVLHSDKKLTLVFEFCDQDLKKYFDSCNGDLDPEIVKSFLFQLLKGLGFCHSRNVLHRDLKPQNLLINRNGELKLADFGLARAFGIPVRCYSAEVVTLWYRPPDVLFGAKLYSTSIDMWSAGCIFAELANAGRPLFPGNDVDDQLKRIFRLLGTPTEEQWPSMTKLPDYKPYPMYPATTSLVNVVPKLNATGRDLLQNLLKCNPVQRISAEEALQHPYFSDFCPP
Chain of Cyclin-dependent kinase 5/CDK5 activator 1 (Q15078 whole entry, further chain): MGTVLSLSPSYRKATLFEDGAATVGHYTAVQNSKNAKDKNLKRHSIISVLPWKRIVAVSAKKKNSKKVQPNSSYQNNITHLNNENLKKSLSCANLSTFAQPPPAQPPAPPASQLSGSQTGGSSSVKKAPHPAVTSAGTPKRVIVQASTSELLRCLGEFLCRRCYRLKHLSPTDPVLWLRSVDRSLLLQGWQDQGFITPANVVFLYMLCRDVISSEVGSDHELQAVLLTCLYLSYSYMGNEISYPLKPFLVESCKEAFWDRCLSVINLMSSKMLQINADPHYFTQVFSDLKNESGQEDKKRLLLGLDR

**Q.** With `COc1ccc(Nc2nccc(-c3cccc(N)c3)n2)cc1` as the compound, how does the AC50 [1] read?
**A.** The AC50 was 80.7 µM (active).

**Q.** And the AC50 [2]?
**A.** The AC50 was 18.8 µM (active).

**Q.** What about the EC50 [3] of the same compound?
**A.** Its EC50 is > 67.5 µM (inactive).

**Q.** For `COc1ccc(-c2noc(CCC(=O)N(C)c3cccc(C)c3)n2)cc1`, which EC50 [4] is on record?
**A.** The EC50 was 6.52 µM (active).

**Q.** With `CC(C)NC(=O)c1cc(-c2ccc(Cl)cc2Cl)n[nH]1` as the compound, how does the IC50 [5] read?
**A.** Its IC50 is > 100 µM (not active).

**Q.** And the IC50 [6]?
**A.** The IC50 was > 100 µM (inactive).

**Q.** Which IC50 (Coagulation factor XII) does the source give for `N#CC1=C2SCC(O)(c3ccccc3)N2C(=O)CC1c1ccccc1F` (configuration not stated) here?
**A.** Its IC50 is 2.02 µM (active).

**Q.** With `COc1cc(C(=O)/C=C/c2cccnc2)c([N+](=O)[O-])cc1OC` as the compound, how does the EC50 (BJ [7]) read?
**A.** Its EC50 is 13 µM (active).

**Q.** What about the EC50 (BJ [8]) of the same compound?
**A.** Its EC50 is 18.6 µM (active).

**Q.** What about the CC50 [9] of the same compound?
**A.** Its CC50 is 15.6 µM (active).

**Q.** And the EC50 (BJ [10])?
**A.** Its EC50 is > 75 µM (not active).

**Q.** And the EC50 [11]?
**A.** Its EC50 is 9.22 µM (active).

**Q.** What about the EC50 [12] of the same compound?
**A.** The EC50 was 32.1 µM (inactive).

**Q.** Which results are given for `CN(C)c1nc(-c2ccccn2)nnc1-c1ccccc1`?
**A.** EC50 (BJ [7]): 16.5 µM (inconclusive); EC50 [13]: 1.23 µM (active); EC50 (cells [14]): 7.46 µM (active); EC50 (BJ [8]): 13.3 µM (inconclusive); EC50 (cells [15]): > 350 µM (not active); EC50 (HT-1080): > 50 µM (not active); EC50 (BJ [10]): > 150 µM (inconclusive); EC50 [11]: 17.5 µM (active); CC50 [16]: 8.1 µM (active); CC50 [17]: 19.8 µM (active); CC50 [18]: 5.38 µM (active); IC50 (Nonstructural protein 1): 1.09 µM (active); AC50 [19]: 6.17 µM (active); IC50 (cells [20]): 6.05 µM (active); EC50 (BJ [21]): 121 µM (inconclusive); AC50 (A-375): 39.3 µM (active); AC50 [22]: 3.3 µM (active); AC50 [23]: 57.6 µM (active); AC50 [24]: 8.3 µM (active)

**Q.** With `COC(=O)C1=C(C)N(Cc2ccccc2)C(NCc2cc(OC)c(OC)c(OC)c2)=N[C@H]1c1ccccc1` as the compound, how does the IC50 [25] read?
**A.** The IC50 was 3.93 µM (active).

**Q.** Which AC50 (Trypanosoma cruzi) does the source give for `CCCNC(=O)C1(C)CCCN(Cc2cccc(Oc3ccccc3)c2)C1` (configuration not stated) here?
**A.** Its AC50 is 9.13 µM (active).

**Q.** Which CC50 [26] does the source give for `N=c1n(CCN2CCCC2)c2ccccc2n1CC(O)c1ccc(Cl)c(Cl)c1` (configuration not stated) here?
**A.** The CC50 was 7.43 µM (active).

**Q.** And the AC50 [19]?
**A.** The AC50 was 11.8 µM (active).

**Q.** For `Cn1c(=O)c(C(=O)Nc2ncccn2)c(O)c2ccccc21`, which IC50 [27] is on record?
**A.** The IC50 was 13.6 µM (active).
